Values of other authors in patent publication US20030118652A1 (priority 2001, published 2003).

Tests used:
[1] = (R)- versus (S)-bisoprolol
[2] = target: cytochrome P450 isoform CYP2D6 (Homo sapiens, UniProt P10635); settings: (R)- versus (S)-bisoprolol; stated as 'it is believed'
[3] = following administration of racemic bisoprolol; (S)- versus (R)-bisoprolol

cytochrome P450 isoform CYP2D6, sequence (P10635 whole entry, canonical isoform): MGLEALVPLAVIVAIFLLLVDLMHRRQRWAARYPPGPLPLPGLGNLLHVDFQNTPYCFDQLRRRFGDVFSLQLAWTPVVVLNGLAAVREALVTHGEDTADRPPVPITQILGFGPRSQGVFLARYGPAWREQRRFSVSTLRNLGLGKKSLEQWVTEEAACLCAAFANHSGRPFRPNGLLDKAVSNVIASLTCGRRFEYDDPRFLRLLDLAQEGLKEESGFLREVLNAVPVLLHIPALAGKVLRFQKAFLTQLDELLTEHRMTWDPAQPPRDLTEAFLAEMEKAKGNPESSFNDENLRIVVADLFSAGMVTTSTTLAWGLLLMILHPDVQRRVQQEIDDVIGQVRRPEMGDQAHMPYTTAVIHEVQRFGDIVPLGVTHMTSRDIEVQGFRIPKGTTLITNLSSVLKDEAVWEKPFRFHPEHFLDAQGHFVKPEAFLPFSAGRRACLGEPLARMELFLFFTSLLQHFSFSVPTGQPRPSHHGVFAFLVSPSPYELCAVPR

## CC(C)NC[C@@H](O)COc1ccc(COCCOC(C)C)cc1 [(R)-bisoprolol]
[1]
  rate of renal clearance: greater
[2]
  rate of oxidative metabolism by CYP2D6: greater rate

## CC(C)NCC(O)COc1ccc(COCCOC(C)C)cc1 (racemic) [racemic bisoprolol, 1-[4-[[2-(1-methylethoxy)ethoxy]-methyl]phenoxy]-3-[(1-methylethyl)amino]-2-propanol]
Bailliart et al. 1987
  side effects on the peripheral circulation: adverse side effects on the peripheral circulation
Dorow et al. 1986
  bronchoconstrictor side effects: bronchoconstrictor effects, including wheeziness and breathlessness
Janka et al. 1986, patients with diabetes
  effects on carbohydrate metabolism: effects on carbohydrate metabolism that are deleterious to patients with diabetes

## CC(C)NC[C@H](O)COc1ccc(COCCOC(C)C)cc1 [(S)-bisoprolol]
[3]
  elimination half-life: slightly higher
